Experimental data taken from patent publication US20230322789A1, “PYRAZOLOPYRIDAZINONE COMPOUND, AND PHARMACEUTICAL COMPOSITION AND USE THEREOF” (BroadenBio Co., Ltd., priority 2020, published 2023).

Target: HPK1 (Homo sapiens (Human), UniProt Q92918)
Assay: HPK1 kinase activity inhibition test (ADP-Glo, luminescence)
Format: biochemical
Details: HPK1 5 nM, ATP 2 μM, read-out: IC50, inhibitory effects of compounds on HPK1 kinase activity
Experimental: 1. HPK1 Kinase Activity Inhibition Test
The kinase activity of HPK1 is manifested as activity of autophosphorylation and phosphorylation of downstream substrates. In the process of autophosphorylation, additional substrates are not required, and ATP is consumed to generate ADP. The amount of the product was measured by ADP-Glo reagent and luminescence method to reflect kinase activity.
Test compounds: compounds prepared in the examples of this application.
Prepare compound stock solution: dissolve the compound to be tested in 100% DMSO to make a 10 mM stock solution;
Prepare 4× Kinase Reaction Buffer:
Prepare 2×HPK1 Kinase Solution:
Dilute the stock solution of the compound to be tested by 5 times with […], make a 4-fold equal dilution in a 96-well dilution plate, add 1 μL of the compound to 49 µL of kinase reaction buffer, and shake on a microplate shaker for 20 minutes. Transfer 2 μL of […] kinase solution to 384 reaction plate, add 1 μL of the test compound to the 384 reaction plate (Greiner, 784075), centrifuge for 1 minute (1000 rpm/min), incubate at 25° C. for 10 minutes. Transfer […] of the 4×ATP mixture to a 384 reaction plate, centrifuge for 1 minute (1000 rpm/mm), and incubate at 25° C. for 60 minutes. In the reaction system, the final concentration of DMSO was […]. Transfer 4 μL of ADP-Glo to a 384 reaction plate, centrifuge for 1 minute (1000 rpm/min), and incubate at 25° C. for 40 minutes. Transfer 8 μL detection solution to a 384 reaction plate, centrifuge for 1 minute (1000 rpm/min), and incubate at 25° C. for 40 minutes. The […] signal was read using a Biotek multi-function plate reader, and the […] (half inhibitory concentration) of the compound was obtained using a four-coefficient nonlinear fitting formula.

HPK1, sequence (Q92918 whole entry): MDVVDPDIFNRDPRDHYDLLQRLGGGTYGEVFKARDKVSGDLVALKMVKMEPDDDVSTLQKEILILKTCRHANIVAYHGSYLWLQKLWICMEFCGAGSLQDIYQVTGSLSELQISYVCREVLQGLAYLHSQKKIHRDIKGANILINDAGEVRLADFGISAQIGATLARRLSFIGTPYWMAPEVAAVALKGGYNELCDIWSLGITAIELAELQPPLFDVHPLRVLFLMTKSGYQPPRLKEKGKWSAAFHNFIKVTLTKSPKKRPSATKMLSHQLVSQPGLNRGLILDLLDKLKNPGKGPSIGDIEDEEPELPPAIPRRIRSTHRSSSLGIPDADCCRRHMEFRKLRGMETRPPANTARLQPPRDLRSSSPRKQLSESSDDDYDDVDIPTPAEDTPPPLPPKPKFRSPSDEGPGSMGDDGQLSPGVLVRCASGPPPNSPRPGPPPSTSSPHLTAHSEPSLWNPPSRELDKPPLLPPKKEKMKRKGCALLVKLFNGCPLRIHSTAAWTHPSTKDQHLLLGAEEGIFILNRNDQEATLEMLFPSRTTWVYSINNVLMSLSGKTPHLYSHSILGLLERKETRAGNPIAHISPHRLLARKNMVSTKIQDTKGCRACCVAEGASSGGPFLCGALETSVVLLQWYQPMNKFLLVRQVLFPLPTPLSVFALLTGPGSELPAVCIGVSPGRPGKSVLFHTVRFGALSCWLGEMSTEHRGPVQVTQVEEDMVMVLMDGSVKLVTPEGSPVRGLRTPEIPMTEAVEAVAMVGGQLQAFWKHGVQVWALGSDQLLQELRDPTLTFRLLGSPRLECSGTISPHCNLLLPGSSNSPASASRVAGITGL

SMILES | IC50
Cc1ccncc1-n1nc2c(-c3ccc(C4=CCN(C)CC4)cc3)n[nH]c2cc1=O [Compound 150, 3-(4-(1-methyl-1,2,3,6-tetrahydropyridin-4-yl)phenyl)-5-(4-methylpyrid-3-yl)-1H-pyrazolo[4,3-c]pyridazin-6(5H)-one] | 500 to 2000 nM
Cc1cccc(F)c1-n1nc2c(-c3ccc(N4CCN5C(=O)OCC5C4)cc3)n[nH]c2cc1=O (stereo not shown) [Compound 122, 7-(4-(5-(2-fluoro-6-methylphenyl)-6-oxo-5,6-dihydro-1H-pyrazolo[4,3-c]pyridazin-3-yl)phenyl)tetrahydro-1H-oxazolo[3,4-a]pyrazin-3(5H)-one] | ≤ 50 nM
Cc1cc(C#N)cc(F)c1-n1nc2c(-c3ccc4c(c3)CN(C(=O)C(C)O)CC4)n[nH]c2cc1=O (stereo not shown) [Compound 173, 3-fluoro-4-(3-(2-(2-hydroxylpropionyl)-1,2,3,4-tetrahydroisoquinolin-7-yl)-6-oxo-1H-pyrazolo[4,3-c]pyridazin-5(6H)-yl)-5-methylbenzonitrile] | 50 to 500 nM
COc1cccc(F)c1-n1nc2c(-c3cccc(N4CCN(C)CC4)c3F)n[nH]c2cc1=O [Compound 209, 3-(2-fluoro-3-(4-methylpiperazin-1-yl)phenyl)-5-(2-fluoro-6-methoxyphenyl)-1H-pyrazolo[4,3-c]pyridazin-6(5H)-one] | 50 to 500 nM
Cc1cccc(F)c1-n1nc2c(-c3ccc4c(c3)CN3CCOC[C@@H]3C4)n[nH]c2cc1=O [Compound 181, (S)-5-(2-fluoro-6-methylphenyl)-3-(1,3,4,6,11,11a-hexahydro-[1,4]oxazino[4,3-b]isoquinolin-8-yl)-1H-pyrazolo[4,3-c]pyridazin-6(5H)-one] | 50 to 500 nM
Cc1cccc(F)c1-n1nc2c(-c3ccc4c(c3)CN(C)C4)n[nH]c2cc1=O [Compound 197, 5-(2-fluoro-6-methylphenyl)-3-(2-methylisoindolin-5-yl)-1H-pyrazolo[4,3-c]pyridazin-6(5H)-one] | ≤ 50 nM
Cc1cccc(F)c1-n1nc2c(-c3ccc(N4CCN(CC(F)F)CC4)cc3)n[nH]c2cc1=O [Compound 84] | 50 to 500 nM
COc1cc(C#N)cc(F)c1-n1nc2c(-c3cccc(N4CC5CCC(C4)N5C)c3)n[nH]c2cc1=O [Compound 203, 3-fluoro-5-methoxy-4-(3-(3-(8-methyl-3,8-diazabicyclo[3.2.1]octan-3-yl)phenyl)-6-oxo-1H-pyrazolo[4,3-c]pyridazin-5(6H)-yl)benzonitrile] | ≤ 50 nM
Cc1cccc(F)c1-n1nc2c(-c3ccc4c(c3F)CN(C)CC4)n[nH]c2cc1=O [Compound 188, 3-(8-fluoro-2-methyl-1,2,3,4-tetrahydroisoquinolin-7-yl)-5-(2-fluoro-6-methylphenyl)-1H-pyrazolo[4,3-c]pyridazin-6(5H)-one] | 50 to 500 nM
COc1cccc(F)c1-n1nc2c(-c3cccc(N4CCC(N)CC4)c3)n[nH]c2cc1=O [Compound 205, 3-(3-(4-aminopiperidin-1-yl)phenyl)-5-(2-fluoro-6-methoxyphenyl)-1H-pyrazolo[4,3-c]pyridazin-6(5H)-one] | ≤ 50 nM
Cc1cccc(F)c1-n1nc2c(-c3ccc4c(c3)CN(C)[C@@H](CO)C4)n[nH]c2cc1=O [Compound 179, (R)-5-(2-fluoro-6-methylphenyl)-3-(3-(hydroxymethyl)-2-methyl-1,2,3,4-tetrahydroisoquinolin-7-yl)-1H-pyrazolo[4,3-c]pyridazin-6(5H)-one] | 50 to 500 nM
Cc1cccc(F)c1-n1nc2c(-c3ccc4c(c3)CN(C)C(=O)C4)n[nH]c2cc1=O [Compound 182, 7-(5-(2-fluoro-6-methylphenyl)-6-oxo-5,6-dihydro-1H-pyrazolo[4,3-c]pyridazin-3-yl)-2-methyl-1,2-dihydroisoquinolin-3(4H)-one] | 50 to 500 nM
COc1cc(F)cc(F)c1-n1nc2c(-c3ccc4c(c3)CN(C)CC4)n[nH]c2cc1=O [Compound 158, 5-(2,4-difluoro-6-methoxyphenyl)-3-(2-methyl-1,2,3,4-tetrahydroisoquinolin-7-yl)-1H-pyrazolo[4,3-c]pyridazin-6(5H)-one] | 50 to 500 nM
COc1ccc(-n2nc3c(-c4ccc(C5=CCN(C)CC5)cc4)n[nH]c3cc2=O)c(OC)c1 [Compound 4, 5-(2,4-dimethoxyphenyl)-3-(4-(1-methyl-1,2,3,6-tetrahydropyridin-4-yl)phenyl)-1H-pyrazolo[4,3-c]pyridazin-6(5H)-one] | ≤ 50 nM
Cc1cccc(F)c1-n1nc2c(-c3ccc4c(c3)CN(C(=O)CN3CCOCC3)CC4)n[nH]c2cc1=O [Compound 169, 5-(2-fluoro-6-methylphenyl)-3-(2-(2-morpholinoacetyl)-1,2,3,4-tetrahydroisoquinolin-7-yl)-1H-pyrazolo[4,3-c]pyridazin-6(5H)-one] | 50 to 500 nM
Cc1cccc(F)c1-n1nc2c(-c3cnc(N4CCOCC4)nc3)n[nH]c2cc1=O [Compound 32, 5-(2-fluoro-6-methylphenyl)-3-(2-morpholinylpyrimidin-5-yl)-1H-pyrazolo[4,3-c]pyridazin-6(5H)-one] | 50 to 500 nM
Cc1cccc(F)c1-n1nc2c(-c3ccc4c(c3)CCN(C3CCOCC3)C4)n[nH]c2cc1=O [Compound 195, 5-(2-fluoro-6-methylphenyl)-3-(2-(tetrahydro-2H-pyran-4-yl)-1,2,3,4-tetrahydroisoquinolin-6-yl)-1H-pyrazolo[4,3-c]pyridazin-6(5H)-one] | 50 to 500 nM
Cc1cccc(F)c1-n1nc2c(-c3ccc(CN4CCN(C)CC4=O)cc3)n[nH]c2cc1=O [Compound 15, 5-(2-fluoro-6-methylphenyl)-3-(4-((4-methyl-2-oxo-piperazin-1-yl)methyl)phenyl)-1H-pyrazolo[4,3-c]pyridazin-6(5H)-one] | 500 to 2000 nM
Cc1cccc(F)c1-n1nc2c(-c3ccc4c(c3)CN(C)[C@H](CO)C4)n[nH]c2cc1=O [Compound 176, (S)-5-(2-fluoro-6-methylphenyl)-3-(3-(hydroxymethyl)-2-methyl-1,2,3,4-tetrahydroisoquinolin-7-yl)-1H-pyrazolo[4,3-c]pyridazin-6(5H)-one] | ≤ 50 nM
Cc1cccc(F)c1-n1nc2c(-c3ccc4c(c3)C(CO)N(C)CC4)n[nH]c2cc1=O (stereo not shown) [Compound 184, 5-(2-fluoro-6-methylphenyl)-3-(1-(hydroxymethyl)-2-methyl-1,2,3,4-tetrahydroisoquinolin-7-yl)-1H-pyrazolo[4,3-c]pyridazin-6(5H)-one] | 50 to 500 nM
Cc1cccc(F)c1-n1nc2c(-c3ccc4c(c3)C(=O)N(C)CC4)n[nH]c2cc1=O [Compound 183] | 500 to 2000 nM
Cc1cccc(F)c1-n1nc2c(-c3cnn(C4CCN(C)CC4)c3)n[nH]c2cc1=O [Compound 19, 5-(2-fluoro-6-methylphenyl)-3-(1-(1-methylpiperidin-4-yl)-1H-pyrazol-4-yl)-1H-pyrazolo[4,3-c]pyridazin-6(5H)-one] | 500 to 2000 nM
COc1cccc(F)c1-n1nc2c(-c3ccc(N4CCN(C)CC4)nc3)n[nH]c2cc1=O [Compound 10] | ≤ 50 nM
COc1cccc(F)c1-n1nc2c(-c3cccc(N4CCC(O)CC4)c3)n[nH]c2cc1=O [Compound 206, 3-(3-(4-hydroxylpiperidin-1-yl)phenyl)-5-(2-fluoro-6-methoxyphenyl)-1H-pyrazolo[4,3-c]pyridazin-6(5H)-one] | 50 to 500 nM
Cc1cccc(F)c1-n1nc2c(-c3cc4c(cc3F)CCN(C)C4)n[nH]c2cc1=O [Compound 189, 3-(6-fluoro-2-methyl-1,2,3,4-tetrahydroisoquinolin-7-yl)-5-(2-fluoro-6-methylphenyl)-1H-pyrazolo[4,3-c]pyridazin-6(5H)-one] | 50 to 500 nM
